In patent US8207146B2, “Phenothiazine derivative having a double bond, method for the production thereof, and use thereof as a pharmaceutical” (Sanofi-Aventis, priority 2007, dated 2012):

Biological target: T1, Human glucokinase (Homo sapiens, UniProt P35557)
T1 sequence (P35557 6-464 isoform P35557-3 limits assumed): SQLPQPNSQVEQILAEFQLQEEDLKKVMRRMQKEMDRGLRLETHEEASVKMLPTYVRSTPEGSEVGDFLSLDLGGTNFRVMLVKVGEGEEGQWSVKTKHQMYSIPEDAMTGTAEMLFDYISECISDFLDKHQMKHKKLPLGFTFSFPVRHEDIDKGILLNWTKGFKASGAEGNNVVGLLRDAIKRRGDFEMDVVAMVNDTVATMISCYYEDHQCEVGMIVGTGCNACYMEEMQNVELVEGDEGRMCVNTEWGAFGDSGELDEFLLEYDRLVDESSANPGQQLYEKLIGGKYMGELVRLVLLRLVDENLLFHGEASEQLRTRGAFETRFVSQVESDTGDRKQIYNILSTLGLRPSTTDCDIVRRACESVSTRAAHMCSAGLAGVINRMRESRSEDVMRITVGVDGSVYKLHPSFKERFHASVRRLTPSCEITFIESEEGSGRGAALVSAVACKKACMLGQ
Conditions: 5 mM glucose; for EC150: concentration of test compound which increases the enzymatic activity by 50%, 1 mM ATP, 25° C., pH 7; for Fold induction: maximum fold stimulation: highest change in extinction in the range 0.1-100 μM relative to change without test substance

`CN1c2ccccc2S(=O)(=O)c2ccc(/C(=C\C3CCCC3)C(=O)Nc3ccn(C)n3)cc21` [Example 1, (E)-3-cyclopentyl-2-(10-methyl-5,5-dioxo-5,10-dihydrophenothiazin-2-yl)-N-(1-methyl-1H-pyrazol-3-yl)acrylamide] gave an EC150 of 1.70 µM and a Fold induction of 3.2.
For `COc1ccc2nc(NC(=O)/C(=C/C3CCC(=O)CC3)c3ccc4c(c3)Nc3ccccc3S4(=O)=O)sc2n1` [Example 4, (E)-2-(5,5-dioxo-5,10-dihydrophenothiazin-2-yl)-N-(5-methoxythiazolo[5,4-b]pyridin-2-yl)-3-(4-oxocyclohexyl)acrylamide], the EC150 was 0.2 µM and the Fold induction was 4.8.
